This note sets out measurements from the supplement of paper PMC3974653.

Molecules are shown by their SMILES. Counter-ions that a name gives are not always drawn.

This experiment relates to MTT (mouse pheochromocytoma). Kind of experiment: IC50 of cell viability (ATP content). Particulars: (24 or 48 h). In outline: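 The IC50 was fitted with a four-parameter logistic equation to normalised CellTiter-Glo ATP luminescence from MTT mouse pheochromocytoma cells. These cells, in white 1536-well plates, had been treated for 24 or 48 hrs with library compounds at 8 final concentrations between 0.5 nM and 46 µM, and luminescence was read after 15 minutes. Positive-control wells served as 100% and DMSO wells as 0%.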
As for `COc1ccc(CC(C)NCC(O)c2ccc(O)c(NC=O)c2)cc1` (stereo not given) [ARFORMOTEROL TARTRATE], the “IC50 of cell viability” value is above 46 µM.
With `CC1CNc2c(cccc2S(=O)(=O)NC(CCCNC(=N)N)C(=O)N2CC[C@@H](C)C[C@@H]2C(=O)O)C1` (stereo not given in full) [ARGATROBAN], the “IC50 of cell viability” value is above 46 µM.
`CC(C)(C)NC[C@H](O)CSc1nc(-c2ccc(C(N)=O)s2)cs1` [AROTINOLOL HYDROCHLORIDE]: the “IC50 of cell viability” value was above 46 µM.
On to `COC(=O)C(Cc1ccccc1)NC(=O)C(N)CC(=O)O` (stereo not given) [ASPARTAME], for which the “IC50 of cell viability” value is above 46 µM.
To `CNC(=O)C[C@@H](N)C(=O)N[C@@H](C(=O)N[C@@H]1C(=O)N2[C@@H]1SC(C)(C)[C@@H]2C(=O)O)c1ccc(O)cc1` [ASPOXICILLIN] belongs above 46 µM; to `CO[C@H]1[C@@H](O)[C@H](N)[C@@H](O[C@H]2O[C@@H]([C@H](C)N)CC[C@H]2N)[C@H](O)[C@@H]1N(C)C(=O)CN` [ASTROMICIN SULPHATE], above 46 µM.
Turning to `CN1[C@@H]2CC[C@@H]1CC(OC(=O)[C@H](CO)c1ccccc1)C2` (stereo not given in full) [ATROPINE], the “IC50 of cell viability” value was above 46 µM.
For `OCC1OC([S][Au])[C@H](O)C(O)C1O` (stereo not given in full) [AUROTHIOGLUCOSE], the “IC50 of cell viability” value was above 46 µM.
Regarding `CCC(C)C1O[C@]2(C=CC1C)CC1CC(C/C=C(\C)[C@H](OC3CC(OC)C(O[C@H]4CC(OC)[C@@H](O)C(C)O4)C(C)O3)[C@@H](C)/C=C/C=C3\COC4C(O)C(C)=C[C@H](C(=O)O1)[C@@]34O)O2` (stereo not given in full) [AVERMECTIN B1], the “IC50 of cell viability” value is above 46 µM.
Regarding `CC[C@H](C)[C@H](NC(=O)[C@H](CO)NC(=O)[C@H](CC(N)=O)NC(=O)[C@H](CC(C)C)NC(=O)[C@H](Cc1ccc(O)cc1)NC(=O)[C@H](CCCCN)NC(=O)[C@H](CCCCN)NC(=O)[C@@H](NC(=O)[C@H](C)NC(=O)[C@H](CCSC)NC(=O)[C@H](CCC(N)=O)NC(=O)[C@H](CCCCN)NC(=O)[C@H](CCCNC(=N)N)NC(=O)[C@H](CC(C)C)NC(=O)[C@H](CCCNC(=N)N)NC(=O)[C@@H](NC(=O)[C@H](Cc1ccc(O)cc1)NC(=O)[C@H](CC(N)=O)NC(=O)[C@H](CC(=O)O)NC(=O)[C@@H](NC(=O)[C@H](Cc1ccccc1)NC(=O)[C@@H](NC(=O)[C@H](C)NC(=O)[C@H](CC(=O)O)NC(=O)[C@H](CO)NC(=O)[C@@H](N)Cc1c[nH]cn1)C(C)C)[C@@H](C)O)[C@@H](C)O)C(C)C)C(=O)N[C@@H](CC(C)C)C(=O)N[C@@H](CC(N)=O)C(=O)O` [AVIPTADIL], the “IC50 of cell viability” value was above 46 µM.
As to `COc1ccc(C(=O)CC(=O)c2ccc(C(C)(C)C)cc2)cc1` [AVOBENZONE], the “IC50 of cell viability” value is above 46 µM.
With `[N-]=[N+]=CC(=O)OCC(N)C(=O)O` (stereo not given) [AZASERINE], the “IC50 of cell viability” value was above 46 µM.
The value for `Cl.CN1CCCC(CC1)N2\N=C(CC3=CC=C(Cl)C=C3)/C4=CC=CC=C4C2=O` (stereo not given) [AZELASTINE HYDROCHLORIDE] was above 46 µM; that for `N[S+](=O)([O-])c1cc(-c2nnn[nH]2)c(NCc2cccs2)cc1Cl` [AZOSEMIDE] was above 46 µM.
In the case of `CC(=O)O[C@H]1CC[C@]\2(C)C3CC[C@@]\4(C)C(C\C=C4C5=CC=CN=C5)C3C\C=C2C1` (stereo not given in full) [Abiraterone Acetate], the “IC50 of cell viability” value was above 46 µM.
`C[C@H]1OC(OC2C(O)[C@@H](O)C(OC3C(O)[C@@H](O)C(O)O[C@@H]3CO)O[C@@H]2CO)[C@H](O)C(O)C1N[C@H]1C=C(CO)[C@@H](O)[C@H](O)C1O` (stereo not given in full) [Acarbose]: the “IC50 of cell viability” value was above 46 µM.
Turning to `CCCC(=O)Nc1ccc(OC[C@@H](O)CNC(C)C)c(C(C)=O)c1` [Acebutolol hydrochloride], the “IC50 of cell viability” value was above 46 µM.
With `O=C(O)COC(=O)Cc1ccccc1Nc1c(Cl)cccc1Cl` [Aceclofenac], the “IC50 of cell viability” value was above 46 µM.
To `COc1ccc2c(c1)c(CC(=O)OCC(=O)O)c(C)n2C(=O)c1ccc(Cl)cc1` [Acemetacin] belongs above 46 µM.
Regarding `CC(=O)C[C@H](C1=CC=C(C=C1)[N+]([O-])=O)\C2=C(/O)C3=C(OC2=O)C=CC=C3` [Acenocoumarol], the “IC50 of cell viability” value is above 46 µM.
For the compound `CC/1=C/C(=O)[N-][S](=O)(=O)O1` [Acesulfame K], the “IC50 of cell viability” value is above 46 µM.
To `CCOC(C)OCC` [Acetal (Acetaldehyde diethyl acetal)] belongs above 46 µM.
`CN(C)C(=O)CNC(=O)Cc1ccccc1` [Acetamide, N,N-dimethyl-2-(2-phenylacetamido)-]: the “IC50 of cell viability” value was above 46 µM.
With `CC(=O)Nc1ccc(O)cc1` [Acetaminophen (4-hydroxyacetanilide)], the “IC50 of cell viability” value is above 46 µM.
On to `CC(=O)Nc1ccccc1` [Acetanilide], for which the “IC50 of cell viability” value is above 46 µM.
Consider `CC(=O)Nc1nnc([S+](N)(=O)[O-])s1` [Acetazolamide], for which the “IC50 of cell viability” value was above 46 µM.
The value for `CC(=O)c1ccc([S+](=O)([O-])NC(=O)NC2CCCCC2)cc1` [Acetohexamide] was above 46 µM; that for `CC(C)=O` [Acetone] was above 46 µM.
Consider `CC(=O)c1ccc2c(c1)N(CCCN(C)C)c1ccccc1S2` [Acetopromazine maleate salt], for which the “IC50 of cell viability” value is above 46 µM.
With `CO[C@@H]1[C@@H](OC2OC(C)C(OC3CC(C)(O)C(O)C(C)O3)C(N(C)C)C2O)[C@@H](CC=O)C[C@@H](C)[C@@H](OC2CCC(N(C)C)C(C)O2)/C=C/C=C/C[C@@H](C)OC(=O)C[C@H]1OC(C)=O` (stereo not given in full) [Acetyl Spiramycin], the “IC50 of cell viability” value is above 46 µM.
Consider `CC(=O)OCC[N+](C)(C)C` [Acetylcholine chloride], for which the “IC50 of cell viability” value is above 46 µM.
For the compound `CC(=O)Oc1ccccc1C(=O)O` [Acetylsalicylic acid], the “IC50 of cell viability” value was above 46 µM.
With `CCC(Cc1c(I)cc(I)c(O)c1I)C(=O)O` (stereo not given) [Acide iophenoique], the “IC50 of cell viability” value was above 46 µM.
As to `O=C(O)c1ccc[n+]([O-])c1` [Acide oxiniacique], the “IC50 of cell viability” value is above 46 µM.
With `O=P([O-])(O)C(O)(Cc1cccnc1)P(=O)([O-])O` [Acide risedronique], the “IC50 of cell viability” value was above 46 µM.
For `O=C([O-])c1cc(Oc2ccc(C(F)(F)F)cc2Cl)ccc1[N+](=O)[O-]` [Acifluorfen sodium], the “IC50 of cell viability” value is above 46 µM.
In the case of `CC1(O\C(=C/C1=O)C(O)=O)C2=CC=CC=C2` (stereo not given) [Acifran], the “IC50 of cell viability” value is above 46 µM.
Turning to `O=C(O)C(=O)Nc1cccc(-c2nnn[nH]2)c1` [Acitazanolast], the “IC50 of cell viability” value is above 46 µM.
The value for `CC(=O)O[C@@H](C)C(=O)OCC[N+](C)(C)C.CC(=O)O[C@@H](C)C(=O)OCC[N+](C)(C)C.O=S(=O)([O-])c1cccc2c(S(=O)(=O)[O-])cccc12` [Aclatonium Napadisilate] was above 46 µM; that for `CC(=O)O[C@@H](C)C(=O)OCC[N+](C)(C)C.CC(=O)O[C@@H](C)C(=O)OCC[N+](C)(C)C.O=S(=O)([O-])c1cccc2c(S(=O)(=O)[O-])cccc12` [Aclatonium napadisilate] was above 46 µM.
